Results as given in paper PMC3585409, “Structural Determinants for Activity and Specificity of the Bacterial Toxin LlpA” (PLoS Pathogens, 2013).
Read-outs that look alike come from different tables or passages of the source.

Assays:
[1] = target: T1, LlpABW (Pseudomonas putida, UniProt Q8GEJ9); assay: ITC; format: binding
T1 construct: gene llpA; full-length, N-terminal His6 tag (pET28a, pCMPG6056), E. coli BL21(DE3); no signal peptide; N-domain Arg4-Pro135, C-domain Ala136-Gln253, hairpin Pro254-His275

[2] = target: T2, LlpABW (Pseudomonas putida, UniProt Q8GEJ9, V208Y); assay: ITC; format: binding
T2 construct: gene llpA; full-length, N-terminal His6 tag (pET28a, pCMPG6056), E. coli BL21(DE3); no signal peptide; N-domain Arg4-Pro135, C-domain Ala136-Gln253, hairpin Pro254-His275

[3] = bis-TRIS propane 20 mM, 200 mM NaCl, pH 7.0, 25°C, single-site fit n = 1, site III^C

T1 sequence (Q8GEJ9 1-276): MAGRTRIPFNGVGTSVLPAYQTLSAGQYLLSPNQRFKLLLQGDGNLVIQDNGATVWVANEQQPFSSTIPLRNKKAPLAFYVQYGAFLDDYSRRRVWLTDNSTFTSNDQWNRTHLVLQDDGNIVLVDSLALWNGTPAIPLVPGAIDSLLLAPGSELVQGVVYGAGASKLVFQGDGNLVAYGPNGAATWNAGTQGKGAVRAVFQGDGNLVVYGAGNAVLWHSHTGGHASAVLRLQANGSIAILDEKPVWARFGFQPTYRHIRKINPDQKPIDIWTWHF
T2 sequence (Q8GEJ9 1-276, stated change not applied): as the sequence (Q8GEJ9 1-276) above

`CO[C@H]1O[C@H](CO)[C@@H](O)[C@H](O)[C@@H]1O` [methyl-α-D-mannopyranoside] was tested, and the Kd ([1]; read-out: Kd) was 45.9 mM and the Kd ([2]; read-out: Kd) was 58.8 mM.
Work on `OC[C@H]1O[C@H](O[C@@H]2C(O)O[C@H](CO)[C@@H](O)[C@@H]2O)[C@@H](O)[C@@H](O)[C@@H]1O` (some centres unmarked) [Manα(1–2)Man] yielded a Kd [1, 3] of 42.4 mM.
For `CC(=O)N[C@H]1[C@H](O[C@@H]2[C@@H](OC[C@H]3OC(O)[C@@H](O)[C@@H](O[C@H]4O[C@H](CO)[C@@H](O)[C@H](O)[C@@H]4O[C@@H]4O[C@H](CO)[C@@H](O)[C@H](O)[C@H]4NC(C)=O)[C@@H]3O)O[C@H](CO)[C@@H](O)[C@@H]2O)O[C@H](CO)[C@@H](O)[C@@H]1O` (some centres unmarked) [GlcNAcβ(1–2)Manα(1–3)[GlcNAcβ(1–2)Manα(1–6)]Man], the Kd [1, 3] was 2.1 mM.
In the case of `OC[C@H]1O[C@H](OC[C@H]2OC(O)[C@@H](O)[C@@H](O[C@H]3O[C@H](CO)[C@@H](O)[C@H](O)[C@@H]3O)[C@@H]2O)[C@@H](O)[C@@H](O)[C@@H]1O` (some centres unmarked) [Manα(1–3)[Manα(1–6)]Man], the Kd [1, 3] is reported as 10.1 mM.
`OC[C@H]1O[C@H](O[C@H]2[C@H](O)[C@@H](CO)OC(O)[C@H]2O)[C@@H](O)[C@@H](O)[C@@H]1O` (some centres unmarked) [Manα(1–3)Man] showed a Kd [1, 3] of 18.2 mM and a Kd [2, 3] of 23 mM.
`OC[C@H]1O[C@H](OC[C@H]2OC(O)[C@@H](O)[C@@H](O)[C@@H]2O)[C@@H](O)[C@@H](O)[C@@H]1O` (some centres unmarked) [Manα(1–6)Man] was tested, and the Kd [1, 3] was 17.2 mM.
